Test results as given in patent publication US10308643B2, “Heterocyclic compound” (Takeda Pharmaceutical Company Limited, priority 2015, dated 2019).

How the values were obtained:
Format in all cases: biochemical
[1] = biological target: T1, HDAC6 enzyme (Homo sapiens, UniProt Q9UBN7); assay: HDAC1/6 Enzyme Inhibitory Assay (HDAC-Glo I/II Assay kit), HDAC6; settings: 1 μM test compound; wells without enzyme = 100% inhibition; read-out: HDAC6 inhibitory rate (%) (1 μM)
T1 construct: transducing full length HDAC1 and HDAC6 genes into Sf-9 insect cells; GST; purchased SignalChem; host or cells: Sf-9 insect cells
T1 sequence (Q9UBN7 1-1215): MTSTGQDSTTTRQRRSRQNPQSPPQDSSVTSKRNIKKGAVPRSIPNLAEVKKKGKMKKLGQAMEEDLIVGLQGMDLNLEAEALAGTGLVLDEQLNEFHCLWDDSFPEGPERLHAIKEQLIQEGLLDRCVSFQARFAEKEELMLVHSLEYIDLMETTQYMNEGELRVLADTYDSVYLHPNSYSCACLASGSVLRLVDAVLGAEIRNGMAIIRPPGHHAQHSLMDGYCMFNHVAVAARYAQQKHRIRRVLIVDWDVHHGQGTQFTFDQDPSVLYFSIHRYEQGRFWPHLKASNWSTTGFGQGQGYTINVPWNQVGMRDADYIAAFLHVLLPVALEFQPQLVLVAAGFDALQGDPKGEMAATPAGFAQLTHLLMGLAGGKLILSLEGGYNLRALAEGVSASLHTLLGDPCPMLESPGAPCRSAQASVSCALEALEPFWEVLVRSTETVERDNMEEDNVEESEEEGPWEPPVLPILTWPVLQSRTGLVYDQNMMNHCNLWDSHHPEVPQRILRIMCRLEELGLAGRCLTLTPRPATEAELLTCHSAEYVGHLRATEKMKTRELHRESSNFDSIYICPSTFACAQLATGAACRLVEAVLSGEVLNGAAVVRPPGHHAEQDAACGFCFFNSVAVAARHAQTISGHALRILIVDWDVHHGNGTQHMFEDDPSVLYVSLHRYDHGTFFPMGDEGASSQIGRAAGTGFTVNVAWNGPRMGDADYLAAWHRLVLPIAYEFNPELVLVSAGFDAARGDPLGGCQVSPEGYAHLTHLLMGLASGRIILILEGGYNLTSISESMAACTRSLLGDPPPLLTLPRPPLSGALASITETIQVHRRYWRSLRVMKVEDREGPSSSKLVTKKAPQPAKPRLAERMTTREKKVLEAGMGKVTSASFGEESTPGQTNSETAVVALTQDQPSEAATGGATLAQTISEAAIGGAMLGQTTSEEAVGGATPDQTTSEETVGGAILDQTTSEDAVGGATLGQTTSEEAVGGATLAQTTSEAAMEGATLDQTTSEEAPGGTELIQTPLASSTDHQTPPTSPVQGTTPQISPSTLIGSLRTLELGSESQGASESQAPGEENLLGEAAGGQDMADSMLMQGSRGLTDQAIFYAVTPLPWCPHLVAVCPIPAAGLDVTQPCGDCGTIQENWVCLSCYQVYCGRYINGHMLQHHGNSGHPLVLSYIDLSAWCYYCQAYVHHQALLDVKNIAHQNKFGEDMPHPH
Outline: (§1)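 Luminescence readout (HDAC-Glo I/II) after 20 min RT reaction of GST-purified full-length HDAC1 or HDAC6 (Sf-9 expressed) with substrate-developer; enzyme and compound preincubated 60 min RT; buffer 24 mM Tris-HCl pH 7.5, 0.6 mM glutathione, 0.01% Tween-20; no-enzyme wells = 100% inhibition.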

[2] = biological target: T2, HDAC1 enzyme (Homo sapiens, UniProt Q13547); assay: HDAC1/6 Enzyme Inhibitory Assay (HDAC-Glo I/II Assay kit), HDAC1; settings: 1 μM test compound; wells without enzyme = 100% inhibition; read-out: HDAC1 inhibitory rate (%) (1 μM)
T2 construct: transducing full length HDAC1 and HDAC6 genes into Sf-9 insect cells; GST; purchased SignalChem; host or cells: Sf-9 insect cells
Outline: as §1

[3] = biological target: T3, HDAC9 enzyme (Homo sapiens, UniProt Q9UKV0); assay: HDAC9 Enzyme Inhibitory Assay (HDAC-Glo class IIa); settings: 1 μM test compound; wells without enzyme = 100% inhibition; read-out: HDAC9 inhibitory rate (%) (1 μM)
T3 construct: transducing full length HDAC9 gene into Sf-9 insect cells; made in house; host or cells: Sf-9 insect cells
Outline: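 Full-length human HDAC9 from Sf-9 cells, Ni-NTA purified, preincubated with compound for 60 min at room temperature in Tris-HCl pH 7.5 buffer (MgCl2, KCl, NaCl, glutathione, Tween-20). HDAC-Glo class IIa substrate-developer added; luminescence read after 20 min, with no-enzyme wells defining 100% inhibition.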

T3 sequence (Q9UKV0 whole entry, species assumed): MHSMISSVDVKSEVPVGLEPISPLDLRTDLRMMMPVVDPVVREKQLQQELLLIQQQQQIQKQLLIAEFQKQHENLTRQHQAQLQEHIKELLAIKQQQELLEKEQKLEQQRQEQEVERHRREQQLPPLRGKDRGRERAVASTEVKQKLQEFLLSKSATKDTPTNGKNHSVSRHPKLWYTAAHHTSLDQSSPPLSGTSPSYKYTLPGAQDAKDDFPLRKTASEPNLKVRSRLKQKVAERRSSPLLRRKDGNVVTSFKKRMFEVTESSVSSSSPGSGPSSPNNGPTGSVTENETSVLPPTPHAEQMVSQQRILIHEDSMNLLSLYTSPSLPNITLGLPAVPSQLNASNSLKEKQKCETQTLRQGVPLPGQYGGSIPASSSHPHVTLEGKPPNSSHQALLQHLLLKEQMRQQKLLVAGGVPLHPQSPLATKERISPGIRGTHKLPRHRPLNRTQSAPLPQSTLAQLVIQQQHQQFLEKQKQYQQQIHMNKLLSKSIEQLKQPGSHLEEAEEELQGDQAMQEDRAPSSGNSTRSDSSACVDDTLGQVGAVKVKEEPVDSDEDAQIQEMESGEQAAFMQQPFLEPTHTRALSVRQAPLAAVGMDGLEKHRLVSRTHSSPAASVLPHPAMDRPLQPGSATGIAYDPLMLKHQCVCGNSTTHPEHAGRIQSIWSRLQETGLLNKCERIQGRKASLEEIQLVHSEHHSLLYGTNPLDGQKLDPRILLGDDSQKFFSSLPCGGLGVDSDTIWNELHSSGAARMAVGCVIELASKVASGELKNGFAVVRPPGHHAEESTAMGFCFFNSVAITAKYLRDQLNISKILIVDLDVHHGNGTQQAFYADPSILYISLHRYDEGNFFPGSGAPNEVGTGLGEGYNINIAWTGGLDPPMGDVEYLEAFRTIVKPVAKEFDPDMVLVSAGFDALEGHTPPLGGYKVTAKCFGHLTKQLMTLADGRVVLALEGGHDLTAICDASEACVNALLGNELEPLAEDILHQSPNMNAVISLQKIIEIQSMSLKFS
T2 sequence (Q13547 whole entry): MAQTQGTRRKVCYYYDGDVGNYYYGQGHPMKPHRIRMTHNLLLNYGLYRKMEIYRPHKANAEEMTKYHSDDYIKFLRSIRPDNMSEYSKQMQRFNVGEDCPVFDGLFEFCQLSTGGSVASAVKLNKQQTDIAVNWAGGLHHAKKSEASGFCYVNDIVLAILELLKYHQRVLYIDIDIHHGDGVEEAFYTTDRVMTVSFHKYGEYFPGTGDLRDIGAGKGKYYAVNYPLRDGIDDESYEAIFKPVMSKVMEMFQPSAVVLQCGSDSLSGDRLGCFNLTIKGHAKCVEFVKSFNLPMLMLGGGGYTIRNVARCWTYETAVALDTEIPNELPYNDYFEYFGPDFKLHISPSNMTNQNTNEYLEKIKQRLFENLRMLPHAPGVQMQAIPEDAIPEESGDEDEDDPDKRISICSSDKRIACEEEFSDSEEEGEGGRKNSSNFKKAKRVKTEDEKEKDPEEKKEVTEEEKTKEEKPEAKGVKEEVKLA

An inhibition at 1 µM [1] of 89%, an inhibition at 1 µM [2] of 3% and an inhibition at 1 µM [3] of 78% were found for N[C@@H]1CCCC[C@H]1N1Cc2ccc(-c3noc(C(F)(F)F)n3)cc2C1=O [Example 28, 2-((1R,2R)-2-aminocyclohexyl)-6-[5-(trifluoromethyl)-1,2,4-oxadiazol-3-yl)isoindolin-1-one] in this work.
An inhibition at 1 µM [1] of 100%, an inhibition at 1 µM [2] of 16% and an inhibition at 1 µM [3] of 62% were found for CC(C)(C)OC(=O)N[C@@H]1COCC[C@H]1N1Cc2ccc(-c3noc(C(F)(F)F)n3)cc2C1=O [Example 81, tert-butyl ((3S,4R)-4-(1-oxo-6-(5-(trifluoromethyl)-1,2,4-oxadiazol-3-yl)-1,3-dihydro-2H-isoindol-2-yl)tetrahydro-2H-pyran-3-yl)carbamate] in this work.
An inhibition at 1 µM [1] of 96%, an inhibition at 1 µM [2] of 35% and an inhibition at 1 µM [3] of 85% were found for CC1(C(=O)N[C@@H]2CCCC[C@@H]2N2Cc3ccc(-c4noc(C(F)(F)F)n4)cc3C2=O)COC1 (relative stereo) [Example 200, 3-methyl-N-(cis-2-(1-oxo-6-(5-(trifluoromethyl)-1,2,4-oxadiazol-3-yl)-1,3-dihydro-2H-isoindol-2-yl)cyclohexyl)oxetane-3-carboxamide] in this work.
An inhibition at 1 µM [1] of 98%, an inhibition at 1 µM [2] of 12% and an inhibition at 1 µM [3] of 68% were found for Cn1cnc(C(=O)N[C@@H]2CCCC[C@H]2N2Cc3ccc(-c4noc(C(F)(F)F)n4)cc3C2=O)c1 [Example 101, 1-methyl-N-((1R,2R)-2-(1-oxo-6-(5-(trifluoromethyl)-1,2,4-oxadiazol-3-yl)-1,3-dihydro-2H-isoindol-2-yl)cyclohexyl)-1H-imidazole-4-carboxamide] in this work.
An inhibition at 1 µM [1] of 99%, an inhibition at 1 µM [2] of 90% and an inhibition at 1 µM [3] of 96% were found for NC(=O)N1CC[C@@H](N2Cc3ccc(-c4noc(C(F)(F)F)n4)cc3C2=O)[C@H](c2ccccc2)C1 [Example 43, (3R,4R)-4-(1-oxo-6-(5-(trifluoromethyl)-1,2,4-oxadiazol-3-yl)-1,3-dihydro-2H-isoindol-2-yl)-3-phenylpiperidine-1-carboxamide] in this work.
An inhibition at 1 µM [1] of 31%, an inhibition at 1 µM [2] of 13% and an inhibition at 1 µM [3] of 38% were found for CC1(C(=O)N[C@H]2CCC[C@@H]2N2Cc3ccc(-c4noc(C(F)(F)F)n4)cc3C2=O)COC1 [Example 152, 3-methyl-N-((1S,2S)-2-(1-oxo-6-(5-(trifluoromethyl)-1,2,4-oxadiazol-3-yl)-1,3-dihydro-2H-isoindol-2-yl)cyclopentyl)oxetane-3-carboxamide] in this work.
An inhibition at 1 µM [1] of 99%, an inhibition at 1 µM [2] of 1% and an inhibition at 1 µM [3] of 45% were found for CC1(C(=O)N[C@@H]2CCC(F)(F)C[C@H]2N2Cc3ccc(-c4noc(C(F)(F)F)n4)cc3C2=O)COC1 [Example 87, N-((1R,2R)-4,4-difluoro-2-(1-oxo-6-(5-(trifluoromethyl)-1,2,4-oxadiazol-3-yl)-1,3-dihydro-2H-isoindol-2-yl)cyclohexyl)-3-methyloxetane-3-carboxamide] in this work.
An inhibition at 1 µM [1] of 100%, an inhibition at 1 µM [2] of 8% and an inhibition at 1 µM [3] of 82% were found for O=C(N[C@@H]1CCCC[C@H]1N1Cc2ccc(-c3noc(C(F)(F)F)n3)cc2C1=O)[C@H]1CC1(F)F [Example 148, (1R)-2,2-difluoro-N-((1R,2R)-2-(1-oxo-6-(5-(trifluoromethyl)-1,2,4-oxadiazol-3-yl)-1,3-dihydro-2H-isoindol-2-yl)cyclohexyl) cyclopropanecarboxamide] in this work.
An inhibition at 1 µM [1] of 99%, an inhibition at 1 µM [2] of 5% and an inhibition at 1 µM [3] of 55% were found for O=C(N[C@@H]1CCCC[C@H]1N1Cc2ccc(-c3noc(C(F)(F)F)n3)cc2C1=O)C1CC1F (stereo partly drawn) [Example 132, 2-fluoro-N-((1R,2R)-2-(1-oxo-6-(5-(trifluoromethyl)-1,2,4-oxadiazol-3-yl)-1,3-dihydro-2H-isoindol-2-yl)cyclohexyl)cyclopropanecarboxamide] in this work.
An inhibition at 1 µM [1] of 98%, an inhibition at 1 µM [2] of 49% and an inhibition at 1 µM [3] of 87% were found for O=C1c2cc(-c3noc(C(F)(F)F)n3)ccc2CN1[C@H]1CCNC[C@H]1c1ccccc1 [Example 16, 2-((3R,4S)-3-phenylpiperidin-4-yl)-6-(5-(trifluoromethyl)-1,2,4-oxadiazol-3-yl)isoindolin-1-one] in this work.
An inhibition at 1 µM [1] of 99%, an inhibition at 1 µM [2] of 5% and an inhibition at 1 µM [3] of 52% were found for O=C(N[C@@H]1CCOC[C@H]1N1Cc2ccc(-c3noc(C(F)(F)F)n3)cc2C1=O)C1CCOC1 (stereo partly drawn) [Example 205, N-((3S,4R)-3-(1-oxo-6-(5-(trifluoromethyl)-1,2,4-oxadiazol-3-yl)-1,3-dihydro-2H-isoindol-2-yl)tetrahydro-2H-pyran-4-yl)tetrahydrofuran-3-carboxamide] in this work.
An inhibition at 1 µM [1] of 11%, an inhibition at 1 µM [2] of -3% and an inhibition at 1 µM [3] of 76% were found for CC(C)(C)OC(=O)N1CC[C@H](N2Cc3cc(-c4noc(C(F)(F)F)n4)ccc3C2=O)[C@H](c2ccccc2)C1 (relative stereo) [Example 78, tert-butyl cis-4-(1-oxo-5-(5-(trifluoromethyl)-1,2,4-oxadiazol-3-yl)-1,3-dihydro-2H-isoindol-2-yl)-3-phenylpiperidine-1-carboxylate] in this work.
An inhibition at 1 µM [1] of 100%, an inhibition at 1 µM [2] of 3% and an inhibition at 1 µM [3] of 37% were found for CC(C)(O)C(=O)N[C@@H]1CCCC[C@H]1N1Cc2ccc(-c3noc(C(F)(F)F)n3)cc2C1=O [Example 95, 2-hydroxy-2-methyl-N-((1R,2R)-2-(1-oxo-6-(5-(trifluoromethyl)-1,2,4-oxadiazol-3-yl)-1,3-dihydro-2H-isoindol-2-yl)cyclohexyl)propanamide] in this work.
An inhibition at 1 µM [1] of 97%, an inhibition at 1 µM [2] of 54% and an inhibition at 1 µM [3] of 89% were found for O=C(N[C@@H]1CCCC[C@H]1N1Cc2ccc(-c3noc(C(F)(F)F)n3)cc2C1=O)c1ccccc1 (relative stereo) [Example 9, trans-N-(2-(1-oxo-6-(5-(trifluoromethyl)-1,2,4-oxadiazol-3-yl)-1,3-dihydro-2H-isoindol-2-yl)cyclohexyl)benzamide] in this work.
An inhibition at 1 µM [1] of 98%, an inhibition at 1 µM [2] of 12% and an inhibition at 1 µM [3] of 66% were found for CC1(C(=O)N[C@@H]2CCCC[C@H]2N2Cc3ccc(-c4noc(C(F)(F)F)n4)cc3C2=O)CC1 [Example 36, 1-methyl-N-((1R,2R)-2-(1-oxo-6-(5-(trifluoromethyl)-1,2,4-oxadiazol-3-yl)-1,3-dihydro-2H-isoindol-2-yl)cyclohexyl) cyclopropanecarboxamide] in this work.
An inhibition at 1 µM [1] of 95%, an inhibition at 1 µM [2] of 1% and an inhibition at 1 µM [3] of 32% were found for COC1CN(C(=O)N[C@@H]2CCCC[C@H]2N2Cc3ccc(-c4noc(C(F)(F)F)n4)cc3C2=O)C1 [Example 163, 3-methoxy-N-((1R,2R)-2-(1-oxo-6-(5-(trifluoromethyl)-1,2,4-oxadiazol-3-yl)-1,3-dihydro-2H-isoindol-2-yl)cyclohexyl)azetidine-1-carboxamide] in this work.
An inhibition at 1 µM [1] of 96%, an inhibition at 1 µM [2] of 3% and an inhibition at 1 µM [3] of 32% were found for CN1CCCCC1C(=O)N[C@@H]1CCCC[C@H]1N1Cc2ccc(-c3noc(C(F)(F)F)n3)cc2C1=O (stereo partly drawn) [Example 124, 1-methyl-N-((1R,2R)-2-(1-oxo-6-(5-(trifluoromethyl)-1,2,4-oxadiazol-3-yl)-1,3-dihydro-2H-isoindol-2-yl)cyclohexyl)piperidine-2-carboxamide] in this work.
